For one assay, the target named is T1, Aurora A (Homo sapiens, UniProt O14965).
T1 sequence (O14965 1-403): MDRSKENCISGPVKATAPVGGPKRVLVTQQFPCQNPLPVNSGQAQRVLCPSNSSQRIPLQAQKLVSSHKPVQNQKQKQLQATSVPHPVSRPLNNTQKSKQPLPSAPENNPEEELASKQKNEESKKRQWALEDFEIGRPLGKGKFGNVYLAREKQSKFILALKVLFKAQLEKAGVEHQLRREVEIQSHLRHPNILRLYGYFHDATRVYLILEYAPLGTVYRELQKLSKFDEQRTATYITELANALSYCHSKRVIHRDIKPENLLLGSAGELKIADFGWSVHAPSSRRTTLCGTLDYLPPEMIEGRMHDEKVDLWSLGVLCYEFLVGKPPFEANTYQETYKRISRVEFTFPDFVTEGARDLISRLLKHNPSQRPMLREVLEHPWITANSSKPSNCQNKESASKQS
Put plainly: Kinase profiling in vitro at 1 μM. Type of assay: biochemical. The note with it: for remaining activity at 1 µM / effect on kinase activity (FIG. 2, in words): Aurora A; for remaining activity at 1 µM: compound at 1 μM, read-out: percentage of remaining activity of recombinant kinase; for effect on kinase activity (FIG. 2, in words): recombinant kinase in vitro. The protocol:
Assays were run in vitro against recombinant kinases. The activity is reported for each kinase, grey histograms for CH21, white for C14 and gradation grey for C1. […] Therefore, C1 and C14 affect differently the Aurora kinase family.
(§1) The specificity of C14 was tested, in vitro, against 121 kinases representative of the kinome. Assays run in duplicate, at the concentration of 1 μM, were performed by MRC (Dundee, UK). Results are represented in FIG. 1. The main targets are highlighted in FIG. 1B.
In addition, the percentage of remaining activity of recombinant kinases Aurora kinases A and B and Checkpoint kinases 1 and 2 at the concentration of 1 μM of C1, C2 and C14 have been determined.
(§2) The profiling was performed at the MRC (Dundee University), in duplicate, on a set of 121 kinases. The panel is representative of the major different classes of kinases. Compounds were used at the concentration of 1 μM. In vitro, IC50 were determined on recombinant kinases by Reaction biology Corp (USA).

The test system of a further assay is U2OS. Kind of assay: Cell viability test (CellTiter 96 AQueous One Solution). Type of assay: cell-based. The note with it: Homo sapiens; U2OS (Osteosarcoma); 72 h of treatment; read-out: IC50 (cell line viability) (converted). Here is the method:
(§3) H358, H322 (lung cancer cells), U373 (glioblastomes) and HeLa ([…]) were grown in DMEM (1.5 g/L glucose) whereas HL60 (human myeloid cell line) cells were in RPMI 1640. U2OS (a human osteosarcoma cell line) cells were cultured in McCoy's Medium 5 A and liver cells (SK Hep 1) in DMEM (4 g/L glucose, (Gibco-Invitrogen). Media (Gibco-Invitrogen), were supplemented with 10% heat-inactivated foetal bovine serum (Gibco-Invitrogen), L-glutamine (2 mM), penicillin (100 UI/ml) and streptomycin (100 μg/ml).
(§4) Cell proliferation assays were conducted in 96 well culture plates. Assays were run in triplicate. Cell viability was estimated upon 72 h of treatment with varying concentrations of compound by addition of CellTiter 96Queous one Solution Reagent (Promega) directly to culture wells under conditions defined by the manufacturer.

The next assay concerns H358 cells. The description is as above. The assay is classed as cell-based. The note with it: for IC50: Homo sapiens, NCI-H358, H358 (Lung), 72 h of treatment, read-out: IC50 (cell line viability). The protocol:
as §3, §4

In the next assay the test system is H322. Described as above. The assay is classed as cell-based. The note with it: NCI-H322; H322 (Lung); 72 h of treatment; read-out: IC50 (cell line viability). Here is the method: as §3, §4
The next assay has as its system U373. Described as above. The assay is classed as cell-based. The note with it: Homo sapiens, U373 MG; U373 (Glioblastoma); 72 h of treatment; read-out: IC50 (cell line viability). Here is the method:
as §3, §4

For a further assay, the system named is HL60. The description is as above. The assay is classed as cell-based. The note with it: Homo sapiens, HL-60; HL60 (Leukemia); 72 h of treatment; read-out: IC50 (cell line viability). Here is the method:
as §3, §4

In another assay the test system is SkHep1. The assay is described as above. Type of assay: cell-based. The note with it: Homo sapiens, SK-HEP1; SkHep1 (Liver cells); 72 h of treatment; read-out: IC50 (cell line viability). Here is the method: as §3, §4
The test system of another assay is 121 kinases. Kind of assay: Kinase profiling on a set of 121 kinases. Type of assay: biochemical. The note with it: for Known Targets (%): kinases presenting the highest inhibitions, lists not exhaustive. The protocol:
FIG. 1A: The potential inhibition of C14 was tested against 121 kinases, in vitro, at the concentration of 1 μM. The kinase activities, in the presence of C14, are represented, each kinase being represented by a vertical bar. Only 18 kinases have less than 30% activity in the presence of C14.
as §1, §2

For the next assay, the system named is HeLa cells. Put plainly: Cell cycle analysis by FACS (propidium iodide). Type of assay: cell-based. The note with it: 0.5 μM. The protocol:
The influence of the C14 treatment versus C1 and control (Te) were analysed by FACS following propidium iodine labelling. C1 and C14 were added at the concentration of 0.5 μM and the treatment lasted either 30 h or 48 h. On the top histogram, arrows allowed the visualization of the different phases of the cell cycle and the corresponding data are reported in Table 4.
HeLa cells were incubated in the presence of either C1 (0.5 μM) or C14 (0.5 μM) or DMSO (Te) and the reparation of the cells in the different phases is analyzed by FACS.
Cells were incubated in either the presence or the absence of compounds. For determination of cell cycle profile, cells were fixed by ice-cold 70% ethanol for 1 h and then, incubated with propidium iodide solution (50 μg/ml PI in the presence of 0.2 mg/ml RNAse) for 15 minutes at 37° C. DNA content was measured using the FACS flow cytometer equipped with CellQuest Pro software (Becton Dickinson, San Diego, Calif.).
Background: Flow cytometry measures light scatter and fluorescence of single cells or particles in a stream.

For assay [1], the system named is Hek cells stably expressing tubulin-GFP. Put plainly: Time-lapse of Hek cells expressing tubulin-GFP. The note with it: 0.5 μM; continuous imaging. The assay is classed as cell-based. Here is the method:
Mitotic Hek cells stably expressing tubulin-GFP were continuously imaged and representative of either control or treated cells (C14 and C1, 0.5 μM) are shown. Elapse times are indicated on each photo.
Mitotic Hek cells stably expressing tubulin-GFP were continuously imaged and representative of either control or treated cells (C14 and C1, 0.5 μM) are shown (FIG. 8). Elapse times are indicated on each photo. In the control as well as in the presence of C1 the mitotic spindle is organized (24 min and To respectively) whereas in the presence of C14, the two poles are only connected by few microtubules (97 min and 130 min). Finally, in the presence of C14, cells escape from mitosis and cytoplasmic microtubules are observed (159 min and 212 min). Note that a duplication of the spindle occurs upon C1 treatment (106 min)

Data on three molecules can be found in patent publication US20140073637A1, “AMINO-SUBSTITUTED-ALKYLOXY-BENZO[E]PYRIDO[4,3-B]INDOLE DERIVATIVES AS NEW POTENT KINASE INHIBITORS” (INSTITUT CURIE, priority 2011, published 2014).

A value given as a limit tells only on which side of the number the result lay.

As a reminder, the remaining activity is the activity still measured, relative to the control. As a reminder, the IC50 is the midpoint of a concentration-inhibition curve. In the case of `Cc1c[nH]c(=O)c2c1[nH]c1ccc3cc(OCCN(C)C)ccc3c12` [Compound C14, 3-(2-N,N-Dimethylaminoethoxy)-8-methyl-7H,10H-benzo[e]pyrido(4,3-b)indol-11-one], on Aurora A, the remaining activity at 1 µM stood at 76% and the “effect on kinase activity (FIG. 2, in words)” value (from here on “effect on kinase activity”) was “not affected”. On Aurora A (at 1 μM), this molecule returned a remaining activity of 76%. For the same molecule, the IC50 in the assay on U2OS is 720 nM. Further, the “death of cycling cells” value in the assay with H358 cells (0.5 μM, cycling H358 cells) is on record as “more than 50%”. The IC50 in the assay on H358 cells turned out to be 470 nM. The half-inhibitory concentration (IC50) in the assay with H322 is above 4000 nM. The IC50 in the assay on U373 turned out to be 3100 nM. The half-inhibitory concentration (IC50) with HL60 is above 2000 nM. In the assay with SkHep1, the IC50 is 2000 nM. In addition, the “number of kinases with less than 30% activity in the presence of compound” value with 121 kinases (121 kinases tested in vitro at 1 μM) amounted to 18. Further, the “Known Targets (%)” value in the assay with 121 kinases is recorded as “Aurora B NUAK1 TrkA Tak1 Gck Chk1 Chk2”. Further, in the assay with HeLa cells (30 h), the “<2N in %” value turned out to be 19%, the “>4N in %” value is on record as 56%, the G0/G1 in % was 3% and the G2/M in % is given as 18%. Also, in the assay on HeLa cells (30 h), the S in % is given as 4%; the “cells in G0/G1 and S” value was determined as 7%. In the assay with HeLa cells (48 h), the “<2N in %” value turned out to be 22%, the “>4N in %” value turned out to be 56%, the G0/G1 in % is 2% and the G2/M in % stood at 4%. Also, in the assay on HeLa cells (48 h), the S in % was 2%; the “cells in G0/G1 and S” value came out at 5%. The “effect on mitotic spindle (in words)” value in assay [1] is on record as “prevented mitotic spindle organization”.

As to `Cc1cncc2c1[nH]c1ccc3cc(OCCN(C)C)ccc3c12` [CH21, 3-(2-N,N-dimethylaminoethyloxy)-8-methyl-7H-benzo[e]pyrido(4,3-b)indole], the “effect on kinase activity” value on Aurora A was “None of these kinases were significantly affected”. Further, the IC50 in the assay on U2OS was 1100 nM; in the assay on H358 cells, 450 nM; in the assay on H322, 800 nM; in the assay on U373 it was 360 nM; in the assay with HL60, above 2000 nM; with SkHep1, 450 nM. Also, the “Known Targets (%)” value in the assay with 121 kinases is reported as “NUAK1 TrkA Tak1 Gck Flt3”.

On to `CCc1c[nH]c(=O)c2c1[nH]c1ccc3cc(OC)ccc3c12` [Compound C1, reference compound], for which, on Aurora A, the remaining activity at 1 µM worked out at 7% and the “effect on kinase activity” value is on record as “highly inhibited”. Moreover, the IC50 in the assay on U2OS is above 1000 nM. In addition, the IC50 in the assay with H358 cells is 145 nM. Moreover, in the assay on U373, the IC50 was above 1000 nM. For the same molecule, the IC50 in the assay on HL60 worked out at 350 nM. Further, the “Known Targets (%)” value in the assay with 121 kinases is listed as “Aurora A Aurora B Chk2 FLT3 Melk”. Besides, in the assay on HeLa cells (30 h), the “<2N in %” value is on record as 6%, the “>4N in %” value was 26%, the G0/G1 in % is 24% and the G2/M in % was determined as 28%. The molecule further returned a S in % in the assay on HeLa cells (30 h) of 13%. Moreover, in the assay with HeLa cells (48 h), the “<2N in %” value is 6%, the “>4N in %” value is on record as 41%, the G0/G1 in % was 18% and the G2/M in % is 22%. This molecule also yielded a S in % with HeLa cells (48 h) of 8%. Also, the cells still cycling in the assay on HeLa cells (after 48 h of treatment) came to 48%. The “effect on mitotic spindle (in words)” value in assay [1] was “induced its duplication”.
